Experimental data: patent publication US10160949B2, “Agent for improving sperm-motility” (Tokyo Metropolitan Geriatric Hospital and Institute of …, priority 2013, dated 2018)
Like-named read-outs stand apart in the source and are kept apart here.

Experiments:
[1] = tested on: mitochondria of sperm; details: FIG. 7(d); compared with untreated and N2 treatment groups; P<0.001
Description: The stained sperm were visualized using a laser scanning confocal microscope (Leica, Wetzlar, Germany). In addition, the viability of sperm was checked by PI fluorescence staining.
Meanwhile, the differential interference images were designated as DIC (Differential interference contrast). […] FIG. 7(d) is a graph showing the results of semi-quantifying, using the ImageJ, the fluorescent intensity of the sperm stained with TMRM.

[2] = tested on: sperm on day 5 after collection; experiment: Migration distance of forwardly moving sperm by video recording and CASA (ImageJ); assay type: cell-based, human; details: FIG. 5; for average migration distance compared among untreated, H2 and N2 groups: 10 patients, 10 s of forward movement, P=0.2193
Method: Then, the recorded video was analyzed by the CASA system (NIH) (computer assisted sperm analysis using ImageJ, description of necessary components and use of free software) to determine the migration distance of forwardly moving sperm.

[3] = tested on: freeze-thawed sperm
Method: Semen that was transferred to the clinic within four hours after ejaculation was suspended in a solution in which equal amounts of the Cleavage Medium and TEST-yolk buffer (TYB; Irvine Scientific, CA, USA) had been mixed. Then, the mixture was dispensed into cryotubes. The resulting cryotubes were once exposed to nitrogen vapor for 5 min, and were then cryopreserved in liquid nitrogen. At the time of thawing, each cryotube was heated in warm water at 37° C. After that, the sperm suspension in the cryotube was dispensed into four vials.
After the dispensed sperm suspension was washed for 5 min with each sperm washing medium, the motility of sperm was measured.

[4] = mixed gas containing 50% hydrogen molecules used for bubbling of a liquid; cited from earlier work
[5] = Concentration of hydrogen in liquid (hydrogen electrode); assay type: physicochemical; details: 10 min after 30 min of the H2 treatment
Method: Next, the culture solution was left to stand. […] The culture solution as so prepared was used to wash sperm, and a change in their motility was examined. […] After re-centrifugation, the concentration was decreased to 100 μM.

[6] = tested on: sperm that had a passage of five days or more after collection; details: for percentage of sperm with forward motility compared with control (untreated) group: duration of gas treatment 5 min; for samples in which the percentage of sperm with forward motility was increased: of 17 samples with forward motility less than 15%
Method: In principle, the percentage (%) of sperm with motility (A+B+C)/(A+B+C+D) was calculated as an average as obtained by repeating the above examination two or three times. […] Here, as used herein, the percentage of sperm with forward motility is represented by the formula: (A+B)/(A+B+C+D).
The percentage of sperm with motility (the percentage of sperm with forward motility and the percentage of sperm with non-forward motility) and the percentage of immotile sperm were compared between the groups. […] To check whether or not the gas passed through the acryl box, another passage was inserted into a water-containing beaker. Whether the gas passed therethrough was confirmed by observing the occurrence of bubbling via the passage in the beaker. With regard to the N2 gas, the procedure was likewise performed and all were carried out at room temperature. A hundred μl of the sperm suspension was added dropwise to a 1008 dish. Before the mixed gas was made to pass therethrough, the dish was placed in the acryl box. […] After 40 min had passed, each sperm suspension was well mixed by pipetting. Next, several μl of the sperm suspension was added dropwise to a Makler container. Then, the sperm concentration, the number of sperm with forward motility, the number of sperm with non-forward motility, and the number of immotile sperm were determined visually. Also, with respect to the untreated group in which the sperm suspension was used as it was, the sperm concentration, the number of sperm with forward motility, the number of sperm with non-forward motility, and the number of immotile sperm were likewise determined visually. […] Samples of the untreated group in which the percentage of sperm with forward motility exceeded 15% were excluded. Regarding the rest samples, one sample was grouped into three treatment groups and each treatment group was measured twice. Specifically, with respect to each sample, the ratio of the number of sperm with forward motility to the total number of sperm in the visual field was defined as the percentage of sperm with forward motility. The ratio of the number of sperm with some motility (a moving flagellum), but without forward motility to the total number of sperm was defined as the percentage of sperm with non-forward motility.

[7] = FIG. 3(a), sperm 5 days or more after collection, mixed gas treatment 40 min, 30 samples
[8] = FIG. 4, 17 samples from patients with forward motility less than 15%

[HH] [H2, hydrogen]
intensity of TMRM fluorescence (mitochondrial membrane potential) [1]: strong intensity of TMRM fluorescence | average migration distance compared among untreated, H2 and N2 groups [2]: no significant difference | migration distance per second of the sperm ([2]; compared with untreated and N2 groups): the longest one | percentage of sperm with forward motility (average) ([3]; FIG. 8(a), 6 samples, patients with forward motility 50% or higher, washing medium containing 50% of H2, 5 min): 61.3% | percentage of sperm with forward motility (average) ([3]; FIG. 8(a), 6 samples, patients with forward motility 50% or higher, washing medium containing 75% of H2, 5 min): 71.0% | percentage of sperm with forward motility (average) ([3]; FIG. 8(a), 6 samples, patients with forward motility 50% or higher, washing medium containing 100% of H2, 5 min): 70.0% | percentage of sperm with forward motility (average) ([3]; FIG. 8(b), 15 samples, patients with forward motility less than 50%, washing medium containing 50% of H2, 5 min): 41.2% | percentage of sperm with forward motility (average) ([3]; FIG. 8(b), 15 samples, patients with forward motility less than 50%, washing medium containing 75% of H2, 5 min): 40.8% | percentage of sperm with forward motility (average) ([3]; FIG. 8(b), 15 samples, patients with forward motility less than 50%, washing medium containing 100% of H2, 5 min): 31.4% | hydrogen solubility [4]: about 0.4 mM | hydrogen in 10 μl of the sperm suspension [5]: eliminated | percentage of sperm with forward motility (average) [6, 7]: 16.8% | samples with percentage of sperm with forward motility higher than in the control ([6]; FIG. 3(b), duration of H2 treatment 30 or 60 min): about 70 % of the samples | percentage of sperm with forward motility compared with control (untreated) group ([6]; FIG. 3(b)): tended to decrease | percentage of sperm with forward motility compared with control (untreated) group ([6]; FIG. 3(b), listed as gaseous agent for improving sperm-motility): did not result in the recovery of the motility of sperm | percentage of sperm with forward motility (average) [6, 8]: 11% | samples in which the percentage of sperm with forward motility was increased ([6]; FIG. 4): 16 samples | time course of forward motility after treatment ([6]; FIG. 6, 30 to 150 min after 30 min H2 treatment, 10 patients): a big change in the forward motility of sperm was not observed | motility 24 hours after treatment ([6]; FIG. 6, H2 treatment 30 min, retreatment 30 min at 24 hours): had motility even after 24 hours | samples of sperm with non-forward motility among samples in which forward motility was not recovered ([6]; of 12 samples (25%)): 3 samples | samples in which forward movement was recovered only in the H2 treatment group ([6]; of 17 samples (35%), no recovery in untreated and N2 groups): Six | samples in which the H2 treatment group exhibited a longer migration distance (increased forward motility) than the N2 treatment group ([6]; of 18 samples in which forward motility was recovered (94%), P<0.01): 17 samples

N#N [N2, nitrogen, reference compound]
average migration distance compared among untreated, H2 and N2 groups [2]: no significant difference | percentage of sperm with forward motility (average) [6, 7]: 7.7% | percentage of sperm with forward motility (average) [6, 8]: 3.6% | samples in which the percentage of sperm with forward motility was increased ([6]; FIG. 4): four
